Data on 64 compounds can be found in a melting point compilation (Tetko et al.; mined from patent text by program, amines drawn as free bases though some values may be those of a salt).

Structures are written as SMILES.

As for `CC(=O)Nc1ccc(F)cc1OCCOc1ccc([N+](=O)[O-])cc1F`, the melting point (in general, the temperature, or range, at which the solid turns liquid) is 192 to 194 °C.

In turn, `N#Cc1cnn(-c2c(Cl)cc(C(F)(F)F)cc2Cl)n1` displayed a melting point of 51 to 53 °C.

For the compound `CCN(CC)C(=O)COc1nc(-c2ccccc2)c2ccccc2n1`, the melting point is 88 °C.

`CC(C)c1nc2ccccc2c(-c2ccc(F)cc2)c1/C=C/I` came in with a melting point of 129 to 131 °C.

As to `CCNC(=NS(=O)(=O)c1cccc(Cl)c1)N1CC(C)(C)C=N1`, the melting point fell in the range of 62 to 67 °C.

The compound `CC(=O)c1cc2c(cn1)[nH]c1ccccc12` had a melting point of 174 to 175 °C.

For the compound `COc1ccc(Nc2c(C#N)cnc3cc(OC)c(OC)cc23)cc1O`, the melting point is 254 to 256 °C.

On to `CCOC(=O)c1ccnc(OCc2nc(-c3ccco3)oc2C)c1`, for which the melting point fell in the range of 80 to 81 °C.

Consider `CCCCNC(=O)[C@H](C)C[C@H](O)[C@H](CC1CCCCC1)NC(=O)[C@H](Cc1cscn1)NC(=O)[C@@H](CC(=O)N1CCOCC1)Cc1ccc(OC)cc1`, for which the melting point is 130 to 132 °C.

For `CCCc1c(C(C)=O)c2ccc(C(N)=O)cc2n1Cc1ccccc1Cl`, the melting point lay within 208 to 211 °C.

For the compound `CCc1cc(Cl)cc2[nH]c(C(=O)O)cc(=O)c12`, the melting point fell in the range of 282 to 283 °C.

The compound `CSc1ccc(-n2c(-c3ccc(F)cc3)nc(SC)c(C#N)c2=O)cc1` had a melting point of 204 to 207 °C.

With `Nc1ccc(-c2cn(C3CCN(Cc4ccccc4)CC3)c3ncnc(N)c23)cc1F`, the melting point lay in the range of 141 to 142 °C.

For the compound `Cc1nn(C)cc1C(=O)Nc1ccccc1`, the melting point lay within 91 to 92 °C.

For the compound `Cn1c(=O)c2c(ncn2CCCN2CC=C(c3c[nH]c4ccccc34)CC2)n(C)c1=O`, the melting point was found to be 243 °C.

In turn, `O=C(c1ccco1)C1C(=O)N(C(=O)Nc2ccc(F)cc2F)c2ccccc21` (centres undefined) came in with a melting point of 191 to 192 °C.

As to `CCC1(O)CCC2C3CCC4=C(CC=C(OC)C4)C3CCC21C` (centres undefined), the melting point was 131 to 134 °C.

As to `NC(=O)c1c(-c2cccc(F)c2)c(Cl)n2c1CN(C(=O)N[C@H]1CC[C@H](O)CC1)CC2`, the melting point was in the range of 251 to 253 °C.

Compound `CON(C)C(=O)c1ccc(Cl)c(Cl)c1` registered a melting point of 39.5 to 43.2 °C.

On to `O=C1OC(c2ccc(Cl)c(S(=O)(=O)Cl)c2)c2ccccc21` (centres undefined), for which the melting point is 158 to 159 °C.

The compound `CC(C)(C)OC(=O)N1CC(CCl)c2c1cc([N+](=O)[O-])c1ccccc21` (centres undefined) gave a melting point of 168 to 169 °C.

Consider `N#Cc1ccc(-c2ccc(OC(F)(F)F)c(CNC3CCN(C(=O)C(N)=O)CC3c3ccccc3)c2)c(F)c1` (centres undefined), for which the melting point was 142 to 144 °C.

The compound `Cc1c(Cc2cccnc2)sc2cc(Br)ccc12` returned a melting point of 69 to 70 °C.

Compound `C=CCn1c(C)c(C)c2cnnc(SCc3ccc(Cl)cc3)c21` had a melting point of 107 to 108 °C.

Regarding `COc1ccc(C(=O)NCc2ccc3c(c2)C(=O)N(C2CCC(=O)NC2=O)C3=O)cc1` (centres undefined), the melting point lay in the range of 215 to 217 °C.

The compound `CC[C@H](C1CC1)n1cc(Cl)nc(N2CCc3cc(OC)cc(Br)c32)c1=O` came in with a melting point of 138 to 140 °C.

Take `O=C(O)C(Oc1ccc(F)cc1)c1ccc(Oc2ccc(Cl)cc2)cc1` (centres undefined): the melting point was in the range of 106 to 111 °C.

On to `Nc1nc(Nc2ccccc2)sc1C(=O)c1cccnc1`, for which the melting point fell in the range of 227 to 228 °C.

As to `Cc1c(-c2ccc(O)cc2)n(Cc2ccc(OCCN3CCCCCCC3)cc2)c2ccc(O)cc12`, the melting point is 98 to 102 °C.

For `Cc1cc2c(=O)n(CCN3CCC(Nc4nc5ccccc5n4Cc4ccc(F)cc4)CC3)c(=O)[nH]c2s1`, the melting point came out at 188 °C.

As to `O=C(Nc1ccc(Oc2ccccc2F)nc1)N1CCc2ccccc2CC1`, the melting point was in the range of 170 to 172 °C.

For the compound `CC(C)c1ccc2nc3ccc(C(=O)NCCCCc4cccnc4)cc3c(=O)n2c1`, the melting point lay in the range of 247 to 249 °C.

In turn, `CCC(CC)c1ccc(Cl)c2nc(Nc3ccc(C)cc3Br)n(CCCCO)c12` gave a melting point of 115 to 118 °C.

The compound `CCOC(=O)c1c[nH]c2c(=O)ccc(Cl)cc2c1=O` gave a melting point of 138 to 140 °C.

`COC(=O)c1sc2c(c1O)CCCC2` gave a melting point of 55 to 58 °C.

Regarding `C=CCNc1nc(C2C(=O)Nc3ccc(Br)cc32)c2cn(C)nc2n1` (centres undefined), the melting point was 336 to 340 °C.

`O=C(O)c1cc(OCCCOc2ccc(OCc3ccccc3)cc2)cc(OCCCOc2ccc(OCc3ccccc3)cc2)c1` came in with a melting point of 139 to 140 °C.

`COC(=O)c1ccccc1S(=O)(=O)N1CCC[C@H]1C(=O)N[C@@H](Cc1ccccc1)C(=O)O` showed a melting point of 163 to 165 °C.

With `Cc1nnc(-c2ccc3occ(-c4ccc(S(=O)CF)cc4)c3c2)o1` (centres undefined), the melting point lay within 173 to 174 °C.

For `NC(=O)c1cccc(CN2C(=O)C3(COc4cc5c(cc43)OCCO5)c3ccccc32)c1` (centres undefined), the melting point lay within 130 to 135 °C.

`CCCCSCC(=O)c1ccc2[nH]c(=O)[nH]c2c1` had a melting point of 211 to 213 °C.

As to `COC(=O)CCC(=O)NS(=O)(=O)c1ccc([N+](=O)[O-])cc1`, the melting point is 156 °C.

`COC(=O)c1cc(Nc2ccccc2)c(Nc2ccc(OC)cc2)cc1C(=O)OC`: the melting point fell in the range of 122 to 124 °C.

As to `CCOc1cc(-n2ccnc2)ccc1C#N`, the melting point lay within 134 to 136 °C.

Take `CC(=O)NC[C@H]1CN(c2ccc(C3CCN(c4nnc(C)s4)CC3)c(F)c2)C(=O)O1`: the melting point was 193 to 195 °C.

The compound `C#CCc1c(Cl)nc(NC=O)nc1Cl` had a melting point of 127 to 128 °C.

With `CCCc1[nH]c(=O)[nH]c(=O)c1N1CCN(Cc2ccccc2)CC1`, the melting point lay within 233 to 235 °C.

Regarding `O=C(CS(=O)Cc1ccc([N+](=O)[O-])cc1)NO` (centres undefined), the melting point amounted to 227 °C.

Turning to `O=C1C=C(NC2CCN(Cc3ccccc3)CC2)CCC1`, the melting point was in the range of 171 to 172 °C.

Regarding `CCCCCCCCCCCNC(=O)NCCCC`, the melting point was 70 °C.

With `CCn1nc(C(F)(F)F)c(CS(=O)(=O)C2=NOC(C)(C)C2)c1OC(F)F`, the melting point was 98 to 100 °C.

On to `O=C(O)CC1CCCN(C(=O)c2ccc(N3CCCC3)cc2Cl)c2ccccc21` (centres undefined), for which the melting point was 191 to 192 °C.

On to `Cc1cnc(N)cc1C`, for which the melting point was in the range of 113 to 114 °C.

`O=C(O)CCCCCCC1=CC(O)CC1=O` (centres undefined): the melting point is 47 to 48.5 °C.

The compound `COC(=O)c1c(C(N)=O)[nH]c(-c2ccccc2)c1N` returned a melting point of 177 to 179 °C.

With `CC1=C(C(=O)c2ccc(C(=O)NCCC#N)cc2)C(=O)C2C=CC=CC2C1=O` (centres undefined), the melting point lay in the range of 172 to 173 °C.

Turning to `O=C1Cc2cccc(Nc3ccc(Cl)cc3)c2N1`, the melting point was in the range of 190 to 192 °C.

`COc1ccc(CN(C)CC(O)COc2ccc(NC(=O)c3cccc4c(=O)c5cccc(OC)c5[nH]c34)cc2)cc1OC` (centres undefined) yielded a melting point of 175 °C.

For `CC(C)n1nc(-c2sc(NCc3ccco3)nc2-c2ccccc2)ccc1=O`, the melting point was in the range of 115 to 116 °C.

The compound `CCCC1(O)CCC2C3CCC4=CC(=O)CCC4C3CCC21CC` (centres undefined) had a melting point of 132 to 134 °C.

`COC(=O)C1=C(C)NC(C)=C(C(=O)NC(C)C)C1c1ccccc1[N+](=O)[O-]` (centres undefined) displayed a melting point of 203 to 206 °C.

On to `ICCCOc1ccc(OCCCI)cc1`, for which the melting point was 93 to 95 °C.

Turning to `COc1ccc(OC)c(Cc2ccc3[nH]c(=S)[nH]c3c2)c1`, the melting point was 210 to 211 °C.

For `CCCCCCCCCCCCCCCCCC(=O)CO`, the melting point was 78 to 80 °C.
